These results are taken from publication PMC11597202, “Novel Thiazole-Fused [4,5-g] or [5,4-g]Quinazolin-8-ones and Their Quinazoline Analogues: Synthesis and Biological Evaluation” (Pharmaceuticals, 2024).

One data set concerns the target T1, CLK1 (Homo sapiens, UniProt P49759).
T1 construct: host or cells: Sf9 insect cells (baculovirus)
In words: ADP-Glo kinase inhibition assay, CLK1. The class given is biochemical. The following applies: percentage of maximum activity of the DMSO control, mean n = 2, 10 µM ATP, read-out: Residual activity CLK1; for remaining activity at 1 µM: 1 μM compound; for remaining activity at 10 µM: 10 μM compound. As for the experimental part: Kinase enzymatic activities were assayed in 384-well plates using the ADP-Glo^TM assay kit (Promega, Madison, WI, USA) according to the recommendations of the manufacturer. This luminescent ADP detection assay was described by Zegzouti and co-workers and provides a homogeneous and high-throughput screening method to measure kinase activity by quantifying the amount of ADP produced during a kinase reaction. Briefly, the reactions were carried out in a final volume of 6 µL for 30 min at 30 °C in an appropriate kinase buffer (10 mM MgCl2, 1 mM EGTA, 1 mM DTT, 25 mM Tris-HCl pH 7.5, 50 µg/mL heparin), with peptide or protein as substrate in the presence of 10 µM ATP. Peptide substrates were obtained from ProteoGenix (Schiltigheim, France) or Sigma for Histone H1, Poly (L-glutamic acid–L-tyrosine) sodium salt, Casein and MBP. After that, 6 µL of ADP-Glo^TM Kinase Reagent was added to stop the kinase reaction. After an incubation time of 50 min at room temperature (rt), 12 µL of Kinase Detection Reagent was added for one hour at rt. The transmitted signal was measured using the Envision (PerkinElmer, Waltham, MA, USA) microplate luminometer and expressed as Relative Light Units (RLUs). Kinase activities are expressed as percentages of remaining kinase activities detected after treatment with 1 or 10 µM of the tested compounds. The maximum kinase activity was measured in the absence of inhibitor but with an equivalent dose of DMSO (solvent of the tested compounds).
3. Kinase inhibition assays
Kinase enzymatic activities were assayed in 384-well plates using the ADP-GloTM assay kit (Promega, Madison, WI) according to the recommendations of the manufacturer. This luminescent ADP detection assay was described by Zegzouti and co-workers and provides a homogeneous and high-throughput screening method to measure kinase activity by quantifying the amount of ADP produced during a kinase reaction. Briefly, the reactions were carried out in a final volume of 6 µl for 30 min at 30°C in appropriate kinase buffer (10 mM MgCl2, 1 mM EGTA, 1 mM DTT, 25 mM Tris-HCl pH 7.5, 50 µg/mL heparin), with peptide or protein as substrate in the presence of 10 µM ATP. Peptide substrates were obtained from ProteoGenix (Schiltigheim, France) or Sigma for Histone H1, Poly (L-glutamic acid – L-tyrosine) sodium salt, Casein and MBP. After that, 6 µL of ADP-GloTM Kinase Reagent was added to stop the kinase reaction. After an incubation time of 50 min at room temperature (rt), 12 µL of Kinase Detection Reagent was added for 1 h at rt. The transmitted signal was measured using the Envision (PerkinElmer, Waltham, MA) microplate luminometer and expressed in Relative Light Unit (RLU). Kinase activities are expressed in percentages of remaining kinase activities detected after treatment with 1 or 10 µM of the tested compounds. The maximal kinase activity is measured in the absence of inhibitor but with an equivalent dose of DMSO (solvent of the tested compounds).
Table. Human protein kinases tested in the panel: CDK9, HASPIN, PIM1, GSK3b, CK1ε, JAK3, CLK1 […]
1 Peptide substrates were obtained from ProteoGenix (Schiltigheim, France) or Sigma for Histone H1, Poly (L-glutamic acid – L-tyrosine) sodium salt, Casein and MBP; 2 “Sp” stands for phosphorylated serine.
Controls inhibitors: To validate each kinase assay, the following model inhibitors were used under the same conditions than the tested compounds: Staurosporine from Streptomyces sp.
Background: In ADP-Glo the light output rises with the ADP produced.

Data set [1] can be described thus: In vitro cytotoxic assay, HCT-116. The class given is cell-based. The note with it: human, HCT-116 cells (colon cancer cell line). As to the method: (§1) Skin normal fibroblastic cells were purchased from Lonza (Basel, Switzerland). […] All culture media were supplemented by 10% of FBS, 1% of penicillin–streptomycin and 2 mM glutamine.
(§2) Chemicals were solubilized in DMSO at a concentration of 10 mM (stock solution) and diluted in culture medium to the desired final concentrations. […] Cells were plated in 96-well plates (4000 cells/well). Twenty-four hours after seeding, the cells were exposed to chemicals. […] Image acquisition and analysis were performed using a Cellomics ArrayScan VTI/HCS Reader (ThermoScientific, Les Ulis, France). The survival percentages were calculated as the percentage of cell number after compound treatment over cell number after DMSO treatment. The relative IC50 values were calculated using the curve fitting XLfit 5.5.0.5 (idbs) integrated in Microsoft Excel as an add-on.
(§3) 4.3.1. Cell culture. Skin normal fibroblastic cells are purchased from Lonza (Basel, Switzerland). Huh7- […]
(§4) from ATCC (American Type Culture Collection). […]
(§5) supplemented by 10% of FBS, 1% of penicillin-streptomycin and 2 mM glutamine.
(§6) 4.3.2. Cytotoxic assay. Chemicals were solubilized in DMSO at a concentration of 10 mM (stock solution) and diluted in culture medium to the desired final concentrations. The dose effect cytotoxic assays (IC50 determination) were performed by increasing the concentrations of each chemical (final well […]
(§7) Cells were plated in 96-well plates
(§8) (4000 cells/well). Twenty-four hours after seeding, cells were exposed to chemicals. After 48h of treatment, cells were washed in PBS and fixed in cooled 90% ethanol/5% acetic acid for 20 min and the […]
(§9) Image acquisition and analysis were performed using a Cellomics ArrayScan VTI/HCS Reader (ThermoScientific). The survival percentages were calculated as the percentage of cell number after compound treatment over cell number after DMSO treatment. The relative IC50 were calculated using the curve fitting XLfit 5.5.0.5 (idbs) integrated in Microsoft Excel as an add-on. The 4 Parameter Logistic Model or Sigmoidal Dose-Response Model describing the sigmoid-shaped response pattern was used (fit = (A+[(B-A)/(1+[(C/x)^D])]) where fit is the response and X is the tested concentration of the compound. The lower asymptote is A (also referred to as the bottom of the curve or lower plateau or the min) and the upper asymptote is B (also referred to as the top of the curve or upper plateau or the max). The slope of the linear part of the curve is described by the factor D. The parameter C is the concentration corresponding to the response midway between A and B. C is called “relative IC50” because it refers to the maximum response obtained by a […]
(§10) The results are represented as the mean ± standard error (SE) calculated from at least three independent experiments.

Data set [2] is described as follows: In vitro cytotoxic assay, MCF-7. Also: 0.1-25 µM tested. The class given is cell-based. The following applies: human, MCF-7 cells (breast cancer cell line). As to the method: as §1, §2, §3, §4, §5, §6, §7, §8, §9, §10
The test system of the next data set is seven tumor cell lines. In words: In vitro cytotoxic assay, whole panel of cancer cell lines. The class given is cell-based, human. The following applies: 48 h; for IC50: Homo sapiens, lowest to highest IC50 among the seven cancer cell lines, read-out: IC50 span over the cancer cell lines. As to the method:
as §1, §2, §3, §4, §5, §6, §7, §8, §9, §10

The next data set concerns DYRK1A. The note with it: in Figure 3; cited from earlier work.

T1 sequence (P49759 whole entry): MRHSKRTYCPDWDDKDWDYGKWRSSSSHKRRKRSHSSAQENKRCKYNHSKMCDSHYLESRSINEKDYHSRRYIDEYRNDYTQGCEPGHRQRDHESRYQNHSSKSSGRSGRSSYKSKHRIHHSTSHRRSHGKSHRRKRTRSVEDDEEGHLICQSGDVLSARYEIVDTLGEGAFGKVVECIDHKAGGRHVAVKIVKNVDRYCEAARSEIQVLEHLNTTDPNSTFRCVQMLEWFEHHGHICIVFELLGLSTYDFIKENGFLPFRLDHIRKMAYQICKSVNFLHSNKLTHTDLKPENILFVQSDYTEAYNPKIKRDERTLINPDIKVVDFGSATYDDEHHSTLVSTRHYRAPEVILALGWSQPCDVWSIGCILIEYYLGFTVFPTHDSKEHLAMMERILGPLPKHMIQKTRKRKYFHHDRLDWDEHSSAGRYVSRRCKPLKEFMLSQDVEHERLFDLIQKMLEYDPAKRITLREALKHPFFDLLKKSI

On to `COC(=N)c1nc2ccc3c(=O)n(Cc4ccccc4)cnc3c2s1` [Compound 6d, Methyl 7-benzyl-6-oxo-6,7-dihydrothiazolo[4,5-h]quinazoline-2-carbimidate], for which, at CLK1, the remaining activity at 1 µM turned out to be 89% and the remaining activity at 10 µM was 73%. Further, in data set [1], inhibition was half-maximal at 2 µM (IC50 at 48 h). Further, the IC50 – broadly, the concentration that inhibits the measured activity by half – at 48 h in data set [2] was found to be 8 µM. In addition, the IC50 in the data set on seven tumor cell lines was in the range of 2 to 11 µM.
`COC(=N)c1nc2cc3c(Nc4ccc(OC)cc4F)ncnc3cc2s1` [Compound 15a, Methyl 8-[(2-fluoro-4-methoxyphenyl)amino]thiazolo[4,5-g]quinazoline-2-carbimidate]: on CLK1, the remaining activity at 1 µM is 89% and the remaining activity at 10 µM worked out at 52%. Further, the IC50 at 48 h in data set [1] worked out at 8 µM. Further, the IC50 at 48 h in data set [2] was more than 25 µM.
For the molecule `COC(=N)c1nc2cc3c(=O)n(Cc4ccccc4)cnc3cc2s1` [Compound 6a, Methyl 7-benzyl-8-oxo-7,8-dihydrothiazolo[4,5-g]quinazoline-2-carbimidate], on CLK1, the remaining activity at 1 µM was determined as 97% and the remaining activity at 10 µM was found to be 96%. Moreover, in data set [1], the IC50 at 48 h turned out to be 20 µM. This molecule returned an IC50 at 48 h in data set [2] of 17 µM. In addition, the IC50 in the data set with seven tumor cell lines is 17 to 27 µM.
Take `COC(=N)c1nc2ccc3ncn(Cc4ccccc4)c(=O)c3c2s1` [Compound I, methyl 8-benzyl-9-oxo-8,9-dihydrothiazolo[5,4-f]quinazoline-2-carbimidate, reference compound]: the remaining activity at 1 µM on CLK1 is 75%. The remaining activity at 10 µM on CLK1 was determined as 27%. Also, the IC50 at 48 h worked out at 18 µM in data set [1] and 17 µM in data set [2]. The IC50 in the data set on DYRK1A was 0.3 µM.
On to `COC(=N)c1nc2ccc3ncnc(Nc4ccc(OC)cc4F)c3c2s1` [Compound II, methyl 9-[(2-fluoro-4-methoxyphenyl)amino]thiazolo[5,4-f]quinazoline-2-carbimidate, reference compound], for which the IC50 at 48 h in data set [1] was 4 µM; in data set [2] it was 5 µM. In the data set on DYRK1A, the IC50 was 0.00036 µM.
`COC(=N)c1nc2cc3ncnc(Nc4ccc(OC)cc4F)c3cc2s1` [Compound 15b, Methyl 8-[(2-fluoro-4-methoxyphenyl)amino]thiazolo[5,4-g]quinazoline-2-carbimidate]: on CLK1, the remaining activity at 1 µM was 102% and the remaining activity at 10 µM is 105%. Besides, in the data set with seven tumor cell lines (0.1-25 μM), the “Cytotoxicity over the cell lines studied (in words)” value was “did not show detectable cytotoxicity”.
For the molecule `COC(=N)c1nc2cc3ncn(Cc4ccccc4)c(=O)c3cc2s1` [Compound 6b, Methyl 7-benzyl-8-oxo-7,8-dihydrothiazolo[5,4-g]quinazoline-2-carbimidate], at CLK1, the remaining activity at 1 µM came to 100% and the remaining activity at 10 µM amounted to 102%. Also, the IC50 at 48 h in data set [1] was determined as 1 µM. The molecule further displayed an IC50 at 48 h in data set [2] of 1 µM. Further, in the data set with seven tumor cell lines, the IC50 was 1 to 3 µM.
Regarding `COC(=N)c1nc2c(ccc3c(=O)n(Cc4ccccc4)cnc32)s1` [Compound 6c, Methyl 7-benzyl-6-oxo-6,7-dihydrothiazolo[5,4-h]quinazoline-2-carbimidate], on CLK1, the remaining activity at 1 µM stood at 95% and the remaining activity at 10 µM came out at 84%. The same molecule yielded an IC50 at 48 h in data set [1] of 3 µM. In data set [2], this molecule showed an IC50 at 48 h of 7 µM. The IC50 in the data set on seven tumor cell lines was 3 to 13 µM.
